We go through four molecules from ChEMBL document CHEMBL6121051, “Dendritic Antifungal Peptides as Potent Agents against Drug-Resistant Candida albicans and Biofilm” (J Med Chem, 2025).

The test system of data set [1] is Candida albicans. The experiment in a line: Antifungal activity against fluconazole-resistant Candida albicans 56214 assessed as inhibition of fungal growth incubated for 48 hrs. Format: functional.
The test system of data set [2] is Candida albicans. The experiment in a line: Antifungal activity against Candida albicans SP 3902 assessed as inhibition of fungal growth incubated for 48 hrs. Format: functional.
Data set [3] has as its system Candida albicans. The experiment in a line: Antifungal activity against Candida albicans cgmcc 2.2086 assessed as inhibition of fungal growth incubated for 48 hrs. Format: functional.
In data set [4] the test system is Candida albicans. The experiment in a line: Antifungal activity against Candida albicans SP 3931 assessed as inhibition of fungal growth incubated for 48 hrs. Format: functional.
The subject of data set [5] is Candida albicans. The experiment in a line: Antifungal activity against Candida albicans SP 3903 assessed as inhibition of fungal growth incubated for 48 hrs. Format: functional.
Data set [6] relates to Candida albicans. The experiment in a line: Antifungal activity against Candida albicans 14936 assessed as inhibition of fungal growth incubated for 48 hrs. Format: functional.
Data set [7] deals with Candida albicans. Description: Antifungal activity against Candida albicans 2.3989 assessed as inhibition of fungal growth incubated for 48 hrs. Format: functional.
For data set [8], the system named is Candida albicans. The experiment in a line: Antifungal activity against Candida albicans 17546 assessed as inhibition of fungal growth incubated for 48 hrs. Format: functional.
For a further data set, the system named is HEK-293T. The experiment in a line: Cytotoxicity against human HEK293T cells assessed as cell viability at 8 to 128 ug/ml incubated for 4 hrs by MTT assay. Format: toxicity, cell-based. The conditions noted are these: dose 8-128 µg/ml.
In data set [9] the test system is Candida albicans. The experiment in a line: Antifungal activity against Candida albicans 58288 assessed as inhibition of fungal growth incubated for 48 hrs. Format: functional.
The nature of data set [10]: Cytotoxicity against human HEK293T cells assessed as cell survival rate at 128 ug/ml incubated for 4 hrs by MTT assay. Format: toxicity, cell-based, HEK-293T. The conditions noted are these: dose 128 µg/ml, read-out: Activity. (Formazan colour is commonly taken as a measure of viable cells.)
Data set [11] can be described thus: Toxicity against human RBC assessed as hemolysis rate at 128 ug/ml incubated for 1 hr. Format: cell-based, Erythrocyte. To be noted: red blood cells (RBC), dose 128 µg/ml, read-out: Activity.

In brackets after ≈: the same amount, converted by molar mass. Positions of bridges follow the written chain, without caps; N, C: chain ends. Residues, ends and D or L forms follow the SMILES beside them. Groups on a side chain read outwards from the residue. Chains are numbered I, II in the order given. *: point of attachment. Lauroyl = CCCCCCCCCCCC(=O)*; Octanoyl = CCCCCCCC(=O)*; Butyryl = CCCC(=O)*

With `CCCC(=O)NCC(=O)NCC(=O)NCC(=O)N[C@@H](CCCCNC(=O)[C@@H]1CCCN1C(=O)[C@H](CCCNC(=N)N)NC(=O)[C@@H]1CCCN1C(=O)[C@@H](N)CCCNC(=N)N)C(=O)N[C@@H](CCCCNC(=O)[C@@H]1CCCN1C(=O)[C@H](CCCNC(=N)N)NC(=O)[C@@H]1CCCN1C(=O)[C@@H](N)CCCNC(=N)N)C(=O)N[C@@H](CCCNC(=N)N)C(=O)N1CCC[C@H]1C(=O)N[C@@H](CCCNC(=N)N)C(=O)N1CCC[C@H]1C(N)=O` (Butyryl-GGGK([Pro-Arg-Pro-Arg])K([Pro-Arg-Pro-Arg])RPRP-NH2), the MIC with Candida albicans [1], with Candida albicans [2], in the data set on Candida albicans [3], with Candida albicans [4], in the data set with Candida albicans [5] and in the data set on Candida albicans [6] was > 128 µM in each case. Further, the MIC in the data set on Candida albicans [7], in the data set on Candida albicans [8] and in the data set with Candida albicans [9] was > 128 µM in each case. In addition, in the data set on HEK-293T, the Activity entry is on record as “Non-toxic”. In [10], the viability at 4 h, 128 ug/ml came to 95%. Moreover, the hemolysis at 1 h, 128 ug/ml in data set [11] is < 2%.

`CCCCCCCC(=O)NCC(=O)NCC(=O)NCC(=O)N[C@@H](CCCCNC(=O)[C@@H]1CCCN1C(=O)[C@H](CCCNC(=N)N)NC(=O)[C@@H]1CCCN1C(=O)[C@H](CCCNC(=N)N)NC(=O)[C@@H]1CCCN1C(=O)[C@@H](N)CCCNC(=N)N)C(=O)N[C@@H](CCCCNC(=O)[C@@H]1CCCN1C(=O)[C@H](CCCNC(=N)N)NC(=O)[C@@H]1CCCN1C(=O)[C@H](CCCNC(=N)N)NC(=O)[C@@H]1CCCN1C(=O)[C@@H](N)CCCNC(=N)N)C(=O)N[C@@H](CCCNC(=N)N)C(=O)N1CCC[C@H]1C(=O)N[C@@H](CCCNC(=N)N)C(=O)N1CCC[C@H]1C(=O)N[C@@H](CCCNC(=N)N)C(=O)N1CCC[C@H]1C(N)=O` (I: Octanoyl-GGGKKRPRPRP-NH2 / II: H-RPRPRP / III: H-RPRPRP; amide I:4-II:C, I:5-III:C): the MIC is 8 µM (≈ 22.8 µg/mL) with Candida albicans [1]; 16 µM (≈ 45.6 µg/mL) in the data set with Candida albicans [2]; 2 µM (≈ 5.7 µg/mL) in the data set on Candida albicans [3]; 16 µM (≈ 45.6 µg/mL) in the data set with Candida albicans [4]; 8 µM (≈ 22.8 µg/mL) with Candida albicans [5]; 4 µM (≈ 11.4 µg/mL) in the data set on Candida albicans [6]. Further, the MIC with Candida albicans [7] was determined as 64 µM (≈ 182 µg/mL); with Candida albicans [8], 4 µM (≈ 11.4 µg/mL); in the data set on Candida albicans [9], 8 µM (≈ 22.8 µg/mL). In the data set with HEK-293T, the Activity entry was “Non-toxic”. In addition, the viability at 4 h, 128 ug/ml in data set [10] worked out at 95%. For the same molecule, the hemolysis at 1 h, 128 ug/ml in data set [11] is < 2%.

`CCCCCCCCCCCC(=O)NCC(=O)NCC(=O)NCC(=O)N[C@@H](CCCCNC(=O)[C@@H]1CCCN1C(=O)[C@H](CCCNC(=N)N)NC(=O)[C@@H]1CCCN1C(=O)[C@@H](N)CCCNC(=N)N)C(=O)N[C@@H](CCCCNC(=O)[C@@H]1CCCN1C(=O)[C@H](CCCNC(=N)N)NC(=O)[C@@H]1CCCN1C(=O)[C@@H](N)CCCNC(=N)N)C(=O)N[C@@H](CCCNC(=N)N)C(=O)N1CCC[C@H]1C(=O)N[C@@H](CCCNC(=N)N)C(=O)N1CCC[C@H]1C(N)=O` (Lauroyl-GGGK([Pro-Arg-Pro-Arg])K([Pro-Arg-Pro-Arg])RPRP-NH2): the MIC with Candida albicans [1] came out at 64 µM (≈ 137 µg/mL); in the data set on Candida albicans [2], 32 µM (≈ 68.7 µg/mL); with Candida albicans [3], 16 µM (≈ 34.3 µg/mL); in the data set on Candida albicans [4] it was 64 µM (≈ 137 µg/mL); in the data set with Candida albicans [5] it was 64 µM (≈ 137 µg/mL); with Candida albicans [6], 32 µM (≈ 68.7 µg/mL). The figures for the MIC in the data set on Candida albicans [7], with Candida albicans [8] and in the data set on Candida albicans [9] were 64 µM (≈ 137 µg/mL), 32 µM (≈ 68.7 µg/mL) and 64 µM (≈ 137 µg/mL), respectively. Also, in the data set on HEK-293T, the Activity entry was “Non-toxic”. For the same molecule, in data set [10], the viability at 4 h, 128 ug/ml came to 95%. Also, in data set [11], the hemolysis at 1 h, 128 ug/ml was < 2%.

Regarding `OC(Cn1cncn1)(Cn1cncn1)c1ccc(F)cc1F` [FLUCONAZOLE], the MIC in the data set on Candida albicans [1] was > 128 µM; with Candida albicans [2] it was 4 µM (≈ 1.23 µg/mL); in the data set on Candida albicans [3] it was 4 µM (≈ 1.23 µg/mL); in the data set with Candida albicans [4], 2 µM (≈ 0.613 µg/mL); with Candida albicans [5], 2 µM (≈ 0.613 µg/mL); in the data set on Candida albicans [6], 2 µM (≈ 0.613 µg/mL). Besides, the MIC in the data set with Candida albicans [7] amounted to 4 µM (≈ 1.23 µg/mL); with Candida albicans [8], 2 µM (≈ 0.613 µg/mL); with Candida albicans [9], 8 µM (≈ 2.45 µg/mL).

As usually defined, the MIC is the lowest concentration that inhibits growth of the organism.
